The text below walks through data of a melting point compilation (Tetko et al.).

For orientation: melting point means the temperature of the solid-liquid transition.

For the series the following is noted: a range is the spread between reports.

Molecule `c1ccc2c(c1)CCCC2` showed a melting point of -36 to -31 °C.

`Cc1ccc2c(c1)C(=O)c1ccccc1C2=O` yielded a melting point of 172 to 177 °C.

As to `CCOc1ccccc1C(=O)O`, the melting point was 20 to 20.7 °C.

Molecule `CCCCC#N` returned a melting point of -96.2 to -96 °C.

The molecule `COc1cccc([N+](=O)[O-])c1C` registered a melting point of 53 to 55 °C.

For `Cc1cc(Br)c(C)cc1Br`, the melting point was 73 to 74 °C.

Molecule `c1csc(-c2ccc(-c3cccs3)s2)c1` had a melting point of 92 to 93.5 °C.

For `O=[N+]([O-])c1ccc2c(c1)Cc1ccccc1-2`, the melting point was in the range of 156 to 157 °C.

`CCCCCCCCCCC(C)=O` returned a melting point of 19 to 21 °C.

Turning to `COc1ccccc1-c1ccccc1`, the melting point is 29 to 31 °C.

`CCCCCCC(=O)OCC` registered a melting point of -66.1 to -66 °C.

As for `O=C(O)CC(O)(CC(=O)O)C(=O)O`, the melting point lay within 153 to 154 °C.

For the molecule `CC(C)(C)Br`, the melting point is -20 to -16 °C.

The molecule `Cc1ccc(N)cc1N` gave a melting point of 97 to 99 °C.

Take `c1ccc(C(=C(c2ccccc2)c2ccccc2)c2ccccc2)cc1`: the melting point lay within 224 to 225 °C.

Regarding `Cc1ccc(N)cc1C`, the melting point is 50 to 51 °C.

The molecule `O=C(O)C(F)(F)C(F)(F)C(F)(F)C(F)(F)C(F)(F)C(F)(F)C(F)(F)F` came in with a melting point of 54.3 to 55.5 °C.

In turn, `c1ccc(CNc2ncnc3nc[nH]c23)cc1` displayed a melting point of 231 °C.

`Cc1nc2ccccc2s1` displayed a melting point of 12 to 14 °C.

`CC(Br)CCCBr` (stereo not given) yielded a melting point of -34.4 to -34 °C.

`BrCC(Br)CBr` registered a melting point of 16 to 17 °C.

The molecule `O=C(C=NO)c1ccccc1` came in with a melting point of 127 to 129 °C.

The molecule `OCCCl` yielded a melting point of -67.5 to -63 °C.

In turn, `c1ccc2c(c1)OCCOCCOCCOCCO2` came in with a melting point of 79 to 80 °C.

Turning to `Clc1ccc(C(c2ccccc2Cl)C(Cl)(Cl)Cl)cc1` (stereo not given), the melting point was 74.2 to 75 °C.

Turning to `Brc1c(Br)c(Br)c(Oc2c(Br)c(Br)c(Br)c(Br)c2Br)c(Br)c1Br`, the melting point was 305 to 306 °C.

Consider `O=P(O)(O)c1ccccc1`, for which the melting point lay within 161 to 164 °C.

As to `Cc1cccc(Br)c1`, the melting point was -40 to -39.8 °C.

`Oc1ccc2c(c1)CCC2` came in with a melting point of 53 to 58 °C.

In turn, `CCCC(C)=O` gave a melting point of -78 to -76.9 °C.

In the case of `COc1ccc(C(=O)O)cc1O`, the melting point is 252 to 253 °C.

In turn, `CC#CCCC` showed a melting point of -90 to -89.6 °C.

Consider `ICI`, for which the melting point was in the range of 5 to 6.1 °C.

Turning to `ClC1=C(Cl)C2(Cl)C3C(Cl)C(Cl)CC3C1(Cl)C2(Cl)Cl` (stereo not given), the melting point was 104 to 106 °C.

For the molecule `CN1C(=O)C(=O)c2ccccc21`, the melting point was in the range of 131 to 132 °C.

With `CCCCOC(=O)c1ccc(N)cc1`, the melting point was in the range of 57.5 to 58 °C.

Molecule `C1CCOCC1` displayed a melting point of -49 to -45 °C.

`CC1=NNC(=O)C1` displayed a melting point of 221 to 222 °C.

As to `Cc1cccc(C)c1`, the melting point is -48 to -47 °C.

In turn, `CC(F)(F)F` had a melting point of -111 °C.

In turn, `CC(=O)NBr` registered a melting point of 104 °C.

As for `O=C1C=CCO1`, the melting point lay within 4 to 4.5 °C.

In turn, `Cc1ccc[nH]c1=O` had a melting point of 138 to 142 °C.

`O=Cc1ccc(Cl)c(Cl)c1` gave a melting point of 43 to 44 °C.

The molecule `c1ccc2ncncc2c1` returned a melting point of 47 to 48 °C.

`Cc1cc(C2(c3ccc(O)c(C)c3)OC(=O)c3ccccc32)ccc1O` had a melting point of 223 to 224 °C.

The molecule `c1ccc(/N=N/c2ccccc2)cc1` yielded a melting point of 67 to 69 °C.

In turn, `O=[N+]([O-])c1ccco1` displayed a melting point of 30 to 31 °C.

As to `c1cc2c3c(c1)CCCN3CCC2`, the melting point was in the range of 35 to 40 °C.

Regarding `NC(=O)c1cccnc1`, the melting point is 130 °C.

`O=c1cc(-c2ccccc2)oc2c1ccc1ccccc12` yielded a melting point of 153 to 158 °C.

In the case of `c1ccc(COc2ccc3[nH]ccc3c2)cc1`, the melting point lay within 99 to 102 °C.

In turn, `NNc1c(F)c(F)c(F)c(F)c1F` displayed a melting point of 75 to 76 °C.

`CCC#CC(C)C` had a melting point of -117 °C.

In turn, `CCCCC1C(=O)N(c2ccccc2)N(c2ccccc2)C1=O` displayed a melting point of 105 to 107 °C.

`Cc1nnc(C)s1` displayed a melting point of 63 to 65 °C.

Consider `Oc1c(Br)c(Br)c(Br)c(Br)c1Br`, for which the melting point fell in the range of 226 to 230 °C.

`O=Cc1ccnc2ccccc12` came in with a melting point of 50 to 51 °C.

In the case of `CCN(CC)c1ccc(C=O)cc1`, the melting point fell in the range of 40 to 41 °C.

On to `O=C(O)c1cccc([N+](=O)[O-])c1`, for which the melting point was in the range of 141 to 142 °C.

In turn, `CCCCOC(=O)CCCCCCCCC(=O)OCCCC` came in with a melting point of -11 to -10 °C.

For `COCc1ccccc1`, the melting point was -53 to -52 °C.

Turning to `Cc1ccc(N)nc1`, the melting point lay within 76 to 76.5 °C.

As to `CCOc1ccc(CC(=O)O)cc1`, the melting point fell in the range of 88.5 to 89 °C.

In the case of `O=S(=O)(Cl)Cl`, the melting point was -54.1 to -54 °C.

On to `CS(C)(=O)=O`, for which the melting point fell in the range of 109 to 110 °C.

In turn, `COC(=O)c1cccnc1` gave a melting point of 42 to 42.5 °C.

The molecule `CCCOC1CCC2(C)C(CC(=O)C3C2CCC2(C)C(OCCC)CCC32)C1` (stereo not given) returned a melting point of 161 to 163 °C.

`c1ccc2c(c1)Sc1ccccc1S2` had a melting point of 159 °C.

As for `CCOC(=O)C(=O)Nc1ccccc1`, the melting point was in the range of 65.5 to 67 °C.

Take `c1ccc(Cc2ccccn2)cc1`: the melting point lay within 10 to 12.5 °C.

Regarding `O=C(Nc1ccccc1)c1ccccc1`, the melting point was in the range of 163 to 164 °C.

Consider `O=C(O)c1cccc(C(F)(F)F)c1`, for which the melting point is 105 to 106 °C.

The molecule `O=C(O)c1ccc([N+](=O)[O-])cc1C(=O)O` registered a melting point of 162 to 163 °C.

The molecule `OCCc1c[nH]c2ccccc12` came in with a melting point of 58 to 59 °C.

With `ClCc1ccc(Cl)cc1Cl`, the melting point is -3 to -2.6 °C.

Take `Cc1ccc(Cl)cc1N`: the melting point was 23 to 26 °C.

Turning to `O=C(n1ccnc1)n1ccnc1`, the melting point is 118 to 119 °C.

Molecule `NS(=O)(=O)Cc1noc2ccccc12` registered a melting point of 162 °C.

Consider `CC(=O)Nc1ccc(N)cc1`, for which the melting point was in the range of 163 to 166 °C.

`CCCCCCCCCCCCCC` yielded a melting point of 5.5 to 6 °C.

For `C=Cc1ccc(N)cc1`, the melting point was in the range of 23.5 to 26 °C.

As to `O=[N+]([O-])c1cc(I)c(O)c(I)c1`, the melting point fell in the range of 153 to 157 °C.

Consider `O=C(c1ccc(Br)cc1)c1ccc(Br)cc1`, for which the melting point lay in the range of 174 to 177 °C.

For the molecule `COc1ccc2c(c1)c(CC(=O)O)c(C)n2C(=O)c1ccc(Cl)cc1`, the melting point fell in the range of 158 to 160 °C.

`Cc1ccc([N+](=O)[O-])cc1C` displayed a melting point of 29 to 31 °C.

With `CCC(Br)CBr` (stereo not given), the melting point was -65.4 to -65 °C.

In turn, `CCc1cc(C)ccc1C` had a melting point of -54 to -53.7 °C.

The molecule `Cc1cc(O)cc(C)c1Cl` had a melting point of 114 to 115 °C.

As to `COc1ccc(C(C)=O)c(O)c1`, the melting point lay in the range of 49 to 52.5 °C.

`CC(C)C(C)(C)C(C)C` yielded a melting point of -102 °C.

`CS(C)=O`: the melting point fell in the range of 18 to 18.5 °C.

`CCCOCC` had a melting point of -128 to -127 °C.

Take `O=C1C=CC(=O)C=C1`: the melting point was in the range of 114 to 116 °C.

In turn, `CC1CCC(C)(C)C1` (stereo not given) had a melting point of -142 °C.

`O=C/C=C/c1ccccc1` came in with a melting point of -8 to -7 °C.

On to `CC(=O)c1ccc(O)c(O)c1O`, for which the melting point lay in the range of 171 to 173 °C.

Molecule `CCOC(=O)C(NC=O)C(=O)OCC` returned a melting point of 48.5 to 53 °C.

`COc1cc(N)ccc1C`: the melting point lay within 56.5 to 58 °C.

In turn, `C1CO1` came in with a melting point of -112 to -111 °C.

On to `CC12CCC(C(=O)C1=O)C2(C)C` (stereo not given), for which the melting point was in the range of 199 to 200 °C.

Consider `N#CCc1ccc(O)cc1`, for which the melting point was in the range of 69 to 71 °C.

The molecule `CC(=O)c1cc(C)c(C)cc1C` registered a melting point of 10 to 10.5 °C.

On to `CC(C=CC1=C(C)CCCC1(C)C)=CC=CC(C)=CCO`, for which the melting point fell in the range of 63 to 63.5 °C.

For the molecule `CCCC(C)(C)C(C)C`, the melting point was -117 °C.

On to `O=C1Cc2ccccc2N1`, for which the melting point lay within 126 to 128 °C.

`CC(C)CCCCC(C)C` registered a melting point of -55 to -54 °C.

In the case of `CC/C=C/CC(=O)O`, the melting point lay within 11 to 12 °C.

`O=C(O)c1cc(I)cc(I)c1O` yielded a melting point of 231 to 236 °C.

In the case of `O=C(O)CCCCCCCC(=O)O`, the melting point was 102 to 106 °C.

`Clc1cccc(Br)c1Cl` registered a melting point of 58 to 60 °C.

`O=[N+]([O-])c1cc([N+](=O)[O-])c(F)cc1F` came in with a melting point of 73 to 74 °C.

In turn, `CCOC=O` showed a melting point of -81 to -79.6 °C.

In turn, `CCCCCCCCCCI` yielded a melting point of -16.3 to -16 °C.

`O=C(O)CSc1ccccc1` showed a melting point of 64 to 65 °C.

Turning to `CCCCCCCCCCCCCCCCCCCCCCCCCCCCCCCC`, the melting point was in the range of 69.7 to 70 °C.

The molecule `N#Cc1cc([N+](=O)[O-])c(Cl)c([N+](=O)[O-])c1` registered a melting point of 141 °C.

In the case of `O=C(Oc1ccccc1)c1ccccc1C(=O)Oc1ccccc1`, the melting point was in the range of 73 to 75 °C.

As to `O=C(O)c1ccccc1-c1ccccc1C(=O)O`, the melting point was 229 to 234 °C.

In turn, `Cc1ccc(NC(=O)c2ccccc2)cc1` had a melting point of 156 to 158 °C.

In the case of `NC(=S)c1c(Cl)cccc1Cl`, the melting point lay in the range of 151 to 152 °C.

`Cc1ccc(Cl)cc1` yielded a melting point of 7 to 8 °C.

In the case of `CCCC=O`, the melting point is -99 to -96 °C.

`N#CCc1ccccc1`: the melting point is -24 to -23.8 °C.

As to `O=[N+]([O-])c1cccc(CO)c1`, the melting point is 30.5 to 32 °C.

As for `O/N=C(\c1ccccc1)C(O)c1ccccc1` (stereo not given), the melting point fell in the range of 151 to 154 °C.

On to `O=C(O)CCCCCCCCCCCCCCCCCCC(=O)O`, for which the melting point was in the range of 126 to 127 °C.

`COc1cc(C=O)cc(OC)c1O` registered a melting point of 112 to 113 °C.

On to `CC1=NS(=O)(=O)c2cc(Cl)ccc2N1`, for which the melting point fell in the range of 327 to 330 °C.

The molecule `COc1cc(OC)cc(C(=O)O)c1` came in with a melting point of 184 to 186 °C.

In turn, `CCCCCCCCCCCCCCCCCCS` came in with a melting point of 30 to 32 °C.

`Nc1cccc2cccc(N)c12` returned a melting point of 63 to 66.5 °C.

The molecule `Cc1ccccc1C(N)=O` returned a melting point of 142 to 147 °C.

Molecule `Nc1ccccc1Br` showed a melting point of 29 to 32 °C.

`COc1ccc(NC(C)=O)cc1`: the melting point was in the range of 127 to 131 °C.
